Read-outs that look alike come from different tables or passages of the source.
Molecular target: T1, Apurinic/apyrimidinic endonuclease 1 (APE1) (Homo sapiens, UniProt P27695)
T1 construct: gene APEX1
Assay: fluorescent HCR/G-quadruplex-ThT assay of AP-site cleavage by purchased APE1; also in cell lysates
Assay type: biochemical

T1 sequence (P27695 2-318): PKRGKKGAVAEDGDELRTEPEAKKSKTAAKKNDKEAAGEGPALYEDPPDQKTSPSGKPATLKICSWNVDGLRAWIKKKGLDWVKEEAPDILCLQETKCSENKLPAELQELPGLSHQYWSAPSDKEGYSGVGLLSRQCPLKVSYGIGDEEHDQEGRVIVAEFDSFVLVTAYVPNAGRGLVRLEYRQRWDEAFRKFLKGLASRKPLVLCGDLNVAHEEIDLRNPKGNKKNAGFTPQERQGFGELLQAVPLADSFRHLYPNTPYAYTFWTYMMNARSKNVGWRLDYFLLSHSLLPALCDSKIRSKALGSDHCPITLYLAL

Row | IC50 (read-out: IC50) [µM] | SMILES | IC50 [µM]
1 | – | O=C(O)c1cc2cccc([N+](=O)[O-])c2[nH]1 [NCA, 7-nitroindole-2-carboxylic acid] | ~3.5
2 | ~75 | CO/N=C(\C(=O)N[C@@H]1C(=O)N2C(C(=O)O)=C(COC(C)=O)CS[C@H]12)c1csc(N)n1 [cefotaxime sodium] | –
